The term inhibition denotes the percentage by which the read-out fell short of the control. The low end stands for little suppression, the high end for strong suppression.

These results are taken from patent US20260297081A1, “COMPOUNDS AND METHODS OF TREATING CANCERS” (Cullgen Inc., priority 2023, published 2026).

The target in this assay is CDK4 (Homo sapiens, UniProt P11802+Q16531). Nature of the assay: CDK4 percentage degradation in Calu-1 cells (Table 6). Details: Cells that express cyclin D1-3 and CDK4/6 proteins were treated with heterobifunctional compounds; endogenous in cells; host or cells: Calu-1. As to conditions: 16 hours; for inhibition at 0.04 µM: 40 nM; for inhibition at 0.2 µM: 200 nM. The format is cell-based. The method in brief: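 Calu-1 cells exposed to heterobifunctional compounds at 40 nM or 200 nM for 16 h. Cyclin D1 and CDK4 levels measured by Western blot of RIPA lysates (BCA-normalised loading), bands quantified by densitometry and expressed as percentage degradation.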
CDK4, sequence (P11802 2-303 limits assumed): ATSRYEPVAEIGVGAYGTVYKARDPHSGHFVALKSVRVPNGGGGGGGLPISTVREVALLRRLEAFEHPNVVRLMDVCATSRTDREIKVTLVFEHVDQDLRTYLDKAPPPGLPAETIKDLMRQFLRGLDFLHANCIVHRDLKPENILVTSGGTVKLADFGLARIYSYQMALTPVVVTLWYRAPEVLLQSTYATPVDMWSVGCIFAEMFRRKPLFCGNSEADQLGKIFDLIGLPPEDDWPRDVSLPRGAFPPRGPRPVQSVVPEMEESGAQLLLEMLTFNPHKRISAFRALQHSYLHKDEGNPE
CDK4, sequence (P24385 whole entry partner): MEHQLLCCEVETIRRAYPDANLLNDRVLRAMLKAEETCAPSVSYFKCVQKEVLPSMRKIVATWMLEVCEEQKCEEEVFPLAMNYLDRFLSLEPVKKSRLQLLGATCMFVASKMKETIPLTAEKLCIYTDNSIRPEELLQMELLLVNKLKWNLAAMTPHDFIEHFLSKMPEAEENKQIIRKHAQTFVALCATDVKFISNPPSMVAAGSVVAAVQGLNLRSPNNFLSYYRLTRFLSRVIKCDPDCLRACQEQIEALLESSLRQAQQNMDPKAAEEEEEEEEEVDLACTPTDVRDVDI
CDK4, sequence (Q16531 2-1140 limits assumed): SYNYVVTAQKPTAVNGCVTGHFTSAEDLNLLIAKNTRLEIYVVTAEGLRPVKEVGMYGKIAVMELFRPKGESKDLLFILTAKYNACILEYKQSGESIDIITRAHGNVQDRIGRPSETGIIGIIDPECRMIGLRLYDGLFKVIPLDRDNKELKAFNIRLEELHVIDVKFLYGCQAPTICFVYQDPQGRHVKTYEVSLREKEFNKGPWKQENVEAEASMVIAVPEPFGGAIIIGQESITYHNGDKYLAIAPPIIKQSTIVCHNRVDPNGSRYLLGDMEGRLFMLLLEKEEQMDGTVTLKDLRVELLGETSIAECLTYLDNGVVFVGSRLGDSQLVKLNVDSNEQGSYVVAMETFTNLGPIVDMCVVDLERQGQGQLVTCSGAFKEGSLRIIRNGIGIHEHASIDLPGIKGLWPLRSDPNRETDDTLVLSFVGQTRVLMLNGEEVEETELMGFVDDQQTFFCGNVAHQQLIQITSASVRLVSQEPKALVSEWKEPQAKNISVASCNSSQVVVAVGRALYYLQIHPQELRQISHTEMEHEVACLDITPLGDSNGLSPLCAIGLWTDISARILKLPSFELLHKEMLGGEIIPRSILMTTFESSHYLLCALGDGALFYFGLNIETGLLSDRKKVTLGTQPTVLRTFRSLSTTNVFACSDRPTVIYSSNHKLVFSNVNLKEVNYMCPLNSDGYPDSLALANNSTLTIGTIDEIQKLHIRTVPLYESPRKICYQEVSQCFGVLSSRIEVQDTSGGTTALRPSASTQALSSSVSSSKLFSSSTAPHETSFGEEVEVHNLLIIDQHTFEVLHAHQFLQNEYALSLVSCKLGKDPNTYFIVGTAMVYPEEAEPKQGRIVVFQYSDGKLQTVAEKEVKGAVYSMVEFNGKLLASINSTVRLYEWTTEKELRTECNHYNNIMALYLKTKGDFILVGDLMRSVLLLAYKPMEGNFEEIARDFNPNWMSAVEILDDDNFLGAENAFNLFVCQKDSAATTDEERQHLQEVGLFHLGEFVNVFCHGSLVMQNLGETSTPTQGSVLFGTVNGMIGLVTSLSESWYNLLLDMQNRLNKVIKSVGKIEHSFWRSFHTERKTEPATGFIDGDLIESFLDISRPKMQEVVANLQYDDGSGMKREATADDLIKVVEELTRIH

In turn, `CNc1ccc(C(=O)Nc2ccc(Cl)c(C3CC3)n2)c(NCCCCCNC(=O)CN2CCN(c3ccc(Nc4ncc5c(C)c(C(C)=O)c(=O)n(C6CCCC6)c5n4)nc3)CC2)n1` [CPD-112, 2-((5-(2-(4-(6-((6-Acetyl-8-cyclopentyl-5-methyl-7-oxo-7,8-dihydropyrido[2,3-d]pyrimidin-2-yl)amino)pyridin-3-yl)piperazin-1-yl)acetamido)pentyl)amino)-N-(5-chloro-6-cyclopropylpyridin-2-yl)-6-(methylamino)nicotinamide] displayed an inhibition at 0.04 µM of less than 30% and an inhibition at 0.2 µM of less than 30%.

Turning to `CNc1ccc(C(=O)Nc2ccc(F)c(C3CC3)n2)c(NCCCCCNC(=O)CN2CCN(c3ccc(Nc4ncc5c(C)c(C(C)=O)c(=O)n(C6CCCC6)c5n4)nc3)CC2)n1` [CPD-113, 2-((5-(2-(4-(6-((6-Acetyl-8-cyclopentyl-5-methyl-7-oxo-7,8-dihydropyrido[2,3-d]pyrimidin-2-yl)amino)pyridin-3-yl)piperazin-1-yl)acetamido)pentyl)amino)-N-(6-cyclopropyl-5-fluoropyridin-2-yl)-6-(methylamino)nicotinamide], the inhibition at 0.04 µM was in the range of 30 to 50% and the inhibition at 0.2 µM was 50 to 80%.

For `CNc1ccc(C(=O)Nc2nc(C3CC3)ccc2F)c(NC2CC3(CC(NC(=O)CN4CCN(c5ccc(Nc6ncc7c(C)c(C(C)=O)c(=O)n(C8CCCC8)c7n6)nc5)CC4)C3)C2)n1` (stereo not drawn) [CPD-114, 2-((6-(2-(4-(6-((6-Acetyl-8-cyclopentyl-5-methyl-7-oxo-7,8-dihydropyrido[2,3-d]pyrimidin-2-yl)amino)pyridin-3-yl)piperazin-1-yl)acetamido)spiro[3.3]heptan-2-yl)amino)-N-(6-cyclopropyl-3-fluoropyridin-2-yl)-6-(methylamino)nicotinamide], the inhibition at 0.04 µM is less than 30% and the inhibition at 0.2 µM is less than 30%.

On to `CNc1ccc(C(=O)Nc2ccc(C)c(OC)n2)c(NCCCCCNC(=O)CN2CCN(c3ccc(Nc4ncc5c(C)c(C(C)=O)c(=O)n(C6CCCC6)c5n4)nc3)CC2)n1` [CPD-116, 2-((5-(2-(4-(6-((6-Acetyl-8-cyclopentyl-5-methyl-7-oxo-7,8-dihydropyrido[2,3-d]pyrimidin-2-yl)amino)pyridin-3-yl)piperazin-1-yl)acetamido)pentyl)amino)-N-(6-methoxy-5-methylpyridin-2-yl)-6-(methylamino)nicotinamide], for which the inhibition at 0.04 µM lay within 30 to 50% and the inhibition at 0.2 µM is 30 to 50%.

Turning to `CNc1ccc(C(=O)Nc2ccc(N(C)C)nn2)c(NC2CC3(C2)CN(C(=O)C(C)CN2CCN(c4ccc(Nc5ncc6c(C)c(C(C)=O)c(=O)n(C7CCCC7)c6n5)nc4)CC2)C3)n1` (stereo not drawn) [CPD-117, 2-((2-(3-(4-(6-((6-Acetyl-8-cyclopentyl-5-methyl-7-oxo-7,8-dihydropyrido[2,3-d]pyrimidin-2-yl)amino)pyridin-3-yl)piperazin-1-yl)-2-methylpropanoyl)-2-azaspiro[3.3]heptan-6-yl)amino)-N-(6-(dimethylamino)pyridazin-3-yl)-6-(methylamino)nicotinamide], the inhibition at 0.04 µM was in the range of 50 to 80% and the inhibition at 0.2 µM was in the range of 50 to 80%.

`CNc1ccc(C(=O)Nc2ccc(N(C)C)nn2)c(NC2CC3(C2)CN(C(=O)C(C)(C)CN2CCN(c4ccc(Nc5ncc6c(C)c(C(C)=O)c(=O)n(C7CCCC7)c6n5)nc4)CC2)C3)n1` [CPD-118, 2-((2-(3-(4-(6-((6-Acetyl-8-cyclopentyl-5-methyl-7-oxo-7,8-dihydropyrido[2,3-d]pyrimidin-2-yl)amino)pyridin-3-yl)piperazin-1-yl)-2,2-dimethylpropanoyl)-2-azaspiro[3.3]heptan-6-yl)amino)-N-(6-(dimethylamino)pyridazin-3-yl)-6-(methylamino)nicotinamide] had an inhibition at 0.04 µM of 50 to 80% and an inhibition at 0.2 µM of 50 to 80%.

`CC(=O)c1c(C)c2cnc(Nc3ccc(N4CCN(CC(=O)NC5CC6(C5)CC(Nc5nc(C(C)C)ccc5C(=O)Nc5cccc(C7CC7)n5)C6)CC4)cn3)nc2n(C2CCCC2)c1=O` (stereo not drawn) [CPD-119, 2-((6-(2-(4-(6-((6-Acetyl-8-cyclopentyl-5-methyl-7-oxo-7,8-dihydropyrido[2,3-d]pyrimidin-2-yl)amino)pyridin-3-yl)piperazin-1-yl)acetamido)spiro[3.3]heptan-2-yl)amino)-N-(6-cyclopropylpyridin-2-yl)-6-isopropylnicotinamide] had an inhibition at 0.04 µM of less than 30% and an inhibition at 0.2 µM of 30 to 50%.

As to `CC(=O)c1c(C)c2cnc(Nc3ccc(N4CCN(CC(=O)NC5CC6(C5)CC(Nc5nc(C)ccc5C(=O)Nc5cccc(C7CC7)n5)C6)CC4)cn3)nc2n(C2CCCC2)c1=O` (stereo not drawn) [CPD-120, 2-((6-(2-(4-(6-((6-Acetyl-8-cyclopentyl-5-methyl-7-oxo-7,8-dihydropyrido[2,3-d]pyrimidin-2-yl)amino)pyridin-3-yl)piperazin-1-yl)acetamido)spiro[3.3]heptan-2-yl)amino)-N-(6-cyclopropylpyridin-2-yl)-6-methylnicotinamide], the inhibition at 0.04 µM was less than 30% and the inhibition at 0.2 µM was in the range of 30 to 50%.

The molecule `CC(=O)c1c(C)c2cnc(Nc3ccc(N4CCN(CC(=O)NC5CC6(C5)CC(Nc5nc(C(F)(F)F)ccc5C(=O)Nc5cccc(C7CC7)n5)C6)CC4)cn3)nc2n(C2CCCC2)c1=O` (stereo not drawn) [CPD-121, 2-((6-(2-(4-(6-((6-Acetyl-8-cyclopentyl-5-methyl-7-oxo-7,8-dihydropyrido[2,3-d]pyrimidin-2-yl)amino)pyridin-3-yl)piperazin-1-yl)acetamido)spiro[3.3]heptan-2-yl)amino)-N-(6-cyclopropylpyridin-2-yl)-6-(trifluoromethyl)nicotinamide] came in with an inhibition at 0.04 µM of less than 30% and an inhibition at 0.2 µM of 30 to 50%.

`CNc1ccc(C(=O)Nc2cccc(=O)[nH]2)c(NC2CC3(CC(NC(=O)CN4CCN(c5ccc(Nc6ncc7c(C)c(C(C)=O)c(=O)n(C8CCCC8)c7n6)nc5)CC4)C3)C2)n1` (stereo not drawn) [CPD-122, 2-((6-(2-(4-(6-((6-Acetyl-8-cyclopentyl-5-methyl-7-oxo-7,8-dihydropyrido[2,3-d]pyrimidin-2-yl)amino)pyridin-3-yl)piperazin-1-yl)acetamido)spiro[3.3]heptan-2-yl)amino)-6-(methylamino)-N-(6-oxo-1,6-dihydropyridin-2-yl)nicotinamide] showed an inhibition at 0.04 µM of 30 to 50% and an inhibition at 0.2 µM of 50 to 80%.

In the case of `CNc1ccc(C(=O)Nc2ccc(C)c(=O)[nH]2)c(NCCCCCNC(=O)CN2CCN(c3ccc(Nc4ncc5c(C)c(C(C)=O)c(=O)n(C6CCCC6)c5n4)nc3)CC2)n1` [CPD-123, 2-((5-(2-(4-(6-((6-Acetyl-8-cyclopentyl-5-methyl-7-oxo-7,8-dihydropyrido[2,3-d]pyrimidin-2-yl)amino)pyridin-3-yl)piperazin-1-yl)acetamido)pentyl)amino)-N-(5-methyl-6-oxo-1,6-dihydropyridin-2-yl)-6-(methylamino)nicotinamide], the inhibition at 0.04 µM was less than 30% and the inhibition at 0.2 µM lay within 50 to 80%.

`CCc1ccc(C(=O)Nc2cccc(C3CC3)n2)c(NC2CC3(CC(NC(=O)CN4CCN(c5ccc(Nc6ncc7c(C)c(C(C)=O)c(=O)n(C8CCCC8)c7n6)nc5)CC4)C3)C2)n1` (stereo not drawn) [CPD-124, 2-((6-(2-(4-(6-((6-Acetyl-8-cyclopentyl-5-methyl-7-oxo-7,8-dihydropyrido[2,3-d]pyrimidin-2-yl)amino)pyridin-3-yl)piperazin-1-yl)acetamido)spiro[3.3]heptan-2-yl)amino)-N-(6-cyclopropylpyridin-2-yl)-6-ethylnicotinamide] had an inhibition at 0.04 µM of 30 to 50% and an inhibition at 0.2 µM of 30 to 50%.

Regarding `CNc1ccc(C(=O)Nc2ccc(OC)c(C3CC3)n2)c(NC2CC3(CC(NC(=O)CN4CCN(c5ccc(Nc6ncc7c(C)c(C(C)=O)c(=O)n(C8CCCC8)c7n6)nc5)CC4)C3)C2)n1` (stereo not drawn) [CPD-125, 2-((6-(2-(4-(6-((6-Acetyl-8-cyclopentyl-5-methyl-7-oxo-7,8-dihydropyrido[2,3-d]pyrimidin-2-yl)amino)pyridin-3-yl)piperazin-1-yl)acetamido)spiro[3.3]heptan-2-yl)amino)-N-(6-cyclopropyl-5-methoxypyridin-2-yl)-6-(methylamino)nicotinamide], the inhibition at 0.04 µM fell in the range of 30 to 50% and the inhibition at 0.2 µM lay in the range of 30 to 50%.

Turning to `CNc1ccc(C(=O)Nc2cccc(C)n2)c(NC[C@H]2CC[C@H](NC(=O)CN3CCN(c4ccc(Nc5ncc6c(C)c(C(C)=O)c(=O)n(C7CCCC7)c6n5)nc4)CC3)CC2)n1` [CPD-126, 2-(((trans-4-(2-(4-(6-((6-Acetyl-8-cyclopentyl-5-methyl-7-oxo-7,8-dihydropyrido[2,3-d]pyrimidin-2-yl)amino)pyridin-3-yl)piperazin-1-yl)acetamido)cyclohexyl)methyl)amino)-6-(methylamino)-N-(6-methylpyridin-2-yl)nicotinamide], the inhibition at 0.04 µM was less than 30% and the inhibition at 0.2 µM was in the range of 50 to 80%.

The molecule `CNc1ccc(C(=O)Nc2cc(C(F)(F)F)n(C)n2)c(NC2CC3(CC(NC(=O)CN4CCN(c5ccc(Nc6ncc7c(C)c(C(C)=O)c(=O)n(C8CCCC8)c7n6)nc5)CC4)C3)C2)n1` (stereo not drawn) [CPD-127, 2-((6-(2-(4-(6-((6-Acetyl-8-cyclopentyl-5-methyl-7-oxo-7,8-dihydropyrido[2,3-d]pyrimidin-2-yl)amino)pyridin-3-yl)piperazin-1-yl)acetamido)spiro[3.3]heptan-2-yl)amino)-N-(1-methyl-5-(trifluoromethyl)-1H-pyrazol-3-yl)-6-(methylamino)nicotinamide] gave an inhibition at 0.04 µM of less than 30% and an inhibition at 0.2 µM of less than 30%.
